According to ChEMBL document CHEMBL1131674, “Synthesis and cytotoxic activities of 6-chloro-7-arylamino-5,8-isoquinolinediones” (Bioorg Med Chem Lett, 1999):
≈ marks a conversion by molar mass, not a printed value.

Legend:
Format in all cases: functional, cell-based, Homo sapiens
A549 = test: In vitro cytotoxic activity against A 549 (non-small cell lung) using SRB (sulforhodamine B) assay
HCT-15 = test: In vitro cytotoxic activity against HCT-15 (colon) using SRB (sulforhodamine B) assay
SK-MEL-2 = test: In vitro cytotoxic activity against SK-MEL-2 (melanoma) using SRB (sulforhodamine B) assay
SK-OV-3 = test: In vitro cytotoxic activity against SK-OV-3 (ovarian) using SRB (sulforhodamine B) assay
XF498 = test: In vitro cytotoxic activity against XF 498 (CNS) using SRB (sulforhodamine B) assay
[1] = Homo sapiens, A549, read-out: IC50
[2] = Homo sapiens, HCT-15, read-out: IC50
[3] = Homo sapiens, SK-MEL-2, read-out: IC50
[4] = Homo sapiens, SK-OV-3, read-out: IC50
[5] = Homo sapiens, XF498, read-out: IC50

| Compound | IC50 (A549; [1]) | IC50 (HCT-15; [2]) | IC50 (SK-MEL-2; [3]) | IC50 (SK-OV-3; [4]) | IC50 (XF498; [5]) | IC50 (A549; a549) | IC50 (HCT-15; hct-15) | IC50 (SK-MEL-2; sk-mel-2) | IC50 (SK-OV-3; sk-ov-3) | IC50 (XF498; xf498) |
| --- | --- | --- | --- | --- | --- | --- | --- | --- | --- | --- |
| CCOc1ccc(NC2=C(Cl)C(=O)c3cccnc3C2=O)cc1 | 0.96 µg/mL (≈ 2.92 µM) | 0.32 µg/mL (≈ 0.973 µM) | 0.34 µg/mL (≈ 1.03 µM) | 0.33 µg/mL (≈ 1 µM) | 0.55 µg/mL (≈ 1.67 µM) | – | – | – | – | – |
| CCOc1ccc(NC2=C(Cl)C(=O)c3ccncc3C2=O)cc1 | 0.42 µg/mL (≈ 1.28 µM) | 0.03 µg/mL (≈ 0.0913 µM) | 0.04 µg/mL (≈ 0.122 µM) | 0.34 µg/mL (≈ 1.03 µM) | 0.27 µg/mL (≈ 0.821 µM) | – | – | – | – | – |
| Cc1ccc(NC2=C(Cl)C(=O)c3ccncc3C2=O)cc1 | 1.22 µg/mL (≈ 4.08 µM) | 0.11 µg/mL (≈ 0.368 µM) | 0.17 µg/mL (≈ 0.569 µM) | 1.54 µg/mL (≈ 5.16 µM) | 1.06 µg/mL (≈ 3.55 µM) | – | – | – | – | – |
| O=C1C(Cl)=C(Nc2ccc(Cl)cc2)C(=O)c2ncccc21 | 5.03 µg/mL (≈ 15.8 µM) | 0.34 µg/mL (≈ 1.07 µM) | 1.3 µg/mL (≈ 4.07 µM) | 1.33 µg/mL (≈ 4.17 µM) | 3.31 µg/mL (≈ 10.4 µM) | – | – | – | – | – |
| Cc1ccc(NC2=C(Cl)C(=O)c3cccnc3C2=O)cc1 | 1.14 µg/mL (≈ 3.82 µM) | 0.33 µg/mL (≈ 1.1 µM) | 0.42 µg/mL (≈ 1.41 µM) | 1.27 µg/mL (≈ 4.25 µM) | 1.26 µg/mL (≈ 4.22 µM) | – | – | – | – | – |
| O=C1/C(=N/c2ccc(O)cc2)C(Cl)=C(O)c2cccnc21 | 1.56 µg/mL (≈ 5.19 µM) | 0.86 µg/mL (≈ 2.86 µM) | 0.47 µg/mL (≈ 1.56 µM) | 1.27 µg/mL (≈ 4.22 µM) | 0.97 µg/mL (≈ 3.23 µM) | – | – | – | – | – |
| N#Cc1ccc(NC2=C(Cl)C(=O)c3ccncc3C2=O)cc1 | 0.8 µg/mL (≈ 2.58 µM) | 0.13 µg/mL (≈ 0.42 µM) | 0.22 µg/mL (≈ 0.71 µM) | 0.21 µg/mL (≈ 0.678 µM) | 0.3 µg/mL (≈ 0.969 µM) | – | – | – | – | – |
| O=C1C(Cl)=C(Nc2ccc(CCO)cc2)C(=O)c2cnccc21 | 0.61 µg/mL (≈ 1.86 µM) | 0.18 µg/mL (≈ 0.548 µM) | 0.08 µg/mL (≈ 0.243 µM) | 0.63 µg/mL (≈ 1.92 µM) | 0.06 µg/mL (≈ 0.183 µM) | – | – | – | – | – |
| O=C1C(Cl)=C(Nc2ccccc2)C(=O)c2cnccc21 | 1.28 µg/mL (≈ 4.5 µM) | 0.1 µg/mL (≈ 0.351 µM) | 0.52 µg/mL (≈ 1.83 µM) | 0.86 µg/mL (≈ 3.02 µM) | 0.96 µg/mL (≈ 3.37 µM) | – | – | – | – | – |
| O=C1C(Cl)=C(Nc2ccc(Br)cc2)C(=O)c2ncccc21 | 4.28 µg/mL (≈ 11.8 µM) | 0.34 µg/mL (≈ 0.935 µM) | 1.26 µg/mL (≈ 3.47 µM) | 0.92 µg/mL (≈ 2.53 µM) | 2.83 µg/mL (≈ 7.78 µM) | – | – | – | – | – |
| O=C1C(Cl)=C(Nc2ccccc2)C(=O)c2ncccc21 | 2.3 µg/mL (≈ 8.08 µM) | 0.74 µg/mL (≈ 2.6 µM) | 1.42 µg/mL (≈ 4.99 µM) | 1.34 µg/mL (≈ 4.71 µM) | 1.33 µg/mL (≈ 4.67 µM) | – | – | – | – | – |
| O=C1C(Cl)=C(Nc2ccc(Cl)cc2)C(=O)c2cnccc21 | 1.27 µg/mL (≈ 3.98 µM) | 0.31 µg/mL (≈ 0.971 µM) | 1.22 µg/mL (≈ 3.82 µM) | 1.86 µg/mL (≈ 5.83 µM) | 1.54 µg/mL (≈ 4.83 µM) | – | – | – | – | – |
| COc1ccc(NC2=C(Cl)C(=O)c3cccnc3C2=O)cc1 | 1.27 µg/mL (≈ 4.04 µM) | 0.33 µg/mL (≈ 1.05 µM) | 1.33 µg/mL (≈ 4.23 µM) | 1.3 µg/mL (≈ 4.13 µM) | 1.26 µg/mL (≈ 4 µM) | – | – | – | – | – |
| O=C1C(Cl)=C(Nc2ccc(I)cc2)C(=O)c2cnccc21 | 1.96 µg/mL (≈ 4.77 µM) | 0.1 µg/mL (≈ 0.244 µM) | 0.23 µg/mL (≈ 0.56 µM) | 0.29 µg/mL (≈ 0.706 µM) | 0.22 µg/mL (≈ 0.536 µM) | – | – | – | – | – |
| O=C1C(Cl)=C(Nc2ccc(F)cc2)C(=O)c2cnccc21 | 0.66 µg/mL (≈ 2.18 µM) | 0.07 µg/mL (≈ 0.231 µM) | 0.13 µg/mL (≈ 0.429 µM) | 0.17 µg/mL (≈ 0.562 µM) | 0.49 µg/mL (≈ 1.62 µM) | – | – | – | – | – |
| O=C1C(Cl)=C(Nc2ccc(Br)cc2)C(=O)c2cnccc21 | 1.1 µg/mL (≈ 3.03 µM) | 0.18 µg/mL (≈ 0.495 µM) | 0.66 µg/mL (≈ 1.82 µM) | 0.97 µg/mL (≈ 2.67 µM) | 1.28 µg/mL (≈ 3.52 µM) | – | – | – | – | – |
| N#Cc1ccc(NC2=C(Cl)C(=O)c3cccnc3C2=O)cc1 | 1.7 µg/mL (≈ 5.49 µM) | 1.45 µg/mL (≈ 4.68 µM) | 0.6 µg/mL (≈ 1.94 µM) | 0.55 µg/mL (≈ 1.78 µM) | 1.47 µg/mL (≈ 4.75 µM) | – | – | – | – | – |
| O=C1C(Cl)=C(Nc2ccc(I)cc2)C(=O)c2ncccc21 | 4.29 µg/mL (≈ 10.4 µM) | 1.27 µg/mL (≈ 3.09 µM) | 3.3 µg/mL (≈ 8.04 µM) | 1.62 µg/mL (≈ 3.95 µM) | 3.61 µg/mL (≈ 8.79 µM) | – | – | – | – | – |
| O=C1/C(=N/c2ccc(O)cc2)C(Cl)=C(O)c2ccncc21 | 0.36 µg/mL (≈ 1.2 µM) | 0.05 µg/mL (≈ 0.166 µM) | 0.06 µg/mL (≈ 0.2 µM) | 0.3 µg/mL (≈ 0.998 µM) | 0.32 µg/mL (≈ 1.06 µM) | – | – | – | – | – |
| COc1ccc(NC2=C(Cl)C(=O)c3ccncc3C2=O)cc1 | 0.5 µg/mL (≈ 1.59 µM) | 0.02 µg/mL (≈ 0.0635 µM) | 0.02 µg/mL (≈ 0.0635 µM) | 0.28 µg/mL (≈ 0.89 µM) | 0.31 µg/mL (≈ 0.985 µM) | – | – | – | – | – |
| O=C1C(Cl)=C(Nc2ccc(F)cc2)C(=O)c2ncccc21 | 1.25 µg/mL (≈ 4.13 µM) | 0.18 µg/mL (≈ 0.595 µM) | 1.39 µg/mL (≈ 4.59 µM) | 0.5 µg/mL (≈ 1.65 µM) | 0.36 µg/mL (≈ 1.19 µM) | – | – | – | – | – |
| CCc1ccc(NC2=C(Cl)C(=O)c3cccnc3C2=O)cc1 | 1.35 µg/mL (≈ 4.32 µM) | 1.39 µg/mL (≈ 4.44 µM) | 1.97 µg/mL (≈ 6.3 µM) | 1.35 µg/mL (≈ 4.32 µM) | 0.66 µg/mL (≈ 2.11 µM) | – | – | – | – | – |
| CCc1ccc(NC2=C(Cl)C(=O)c3ccncc3C2=O)cc1 | 0.62 µg/mL (≈ 1.98 µM) | 0.05 µg/mL (≈ 0.16 µM) | 0.07 µg/mL (≈ 0.224 µM) | 0.34 µg/mL (≈ 1.09 µM) | 0.33 µg/mL (≈ 1.06 µM) | – | – | – | – | – |
| O=C1C(Cl)=C(Nc2ccc(CCO)cc2)C(=O)c2ncccc21 | 1.11 µg/mL (≈ 3.38 µM) | 0.48 µg/mL (≈ 1.46 µM) | 0.36 µg/mL (≈ 1.1 µM) | 0.42 µg/mL (≈ 1.28 µM) | 0.52 µg/mL (≈ 1.58 µM) | – | – | – | – | – |
| COC1=C(N)C(=O)c2nc(-c3nc(C(=O)O)c(C)c(-c4ccc(OC)c(OC)c4O)c3N)ccc2C1=O [STREPTONIGRIN] | 0.33 µg/mL (≈ 0.652 µM) | 0.02 µg/mL (≈ 0.0395 µM) | 0.02 µg/mL (≈ 0.0395 µM) | 0.28 µg/mL (≈ 0.553 µM) | 0.31 µg/mL (≈ 0.612 µM) | – | – | – | – | – |
| CISPLATIN | – | – | – | – | – | 1.8 µg/mL | 2.9 µg/mL | 1.38 µg/mL | 2.07 µg/mL | 2.74 µg/mL |
